Test results published in patent US5378706A, “Fused-thiazole derivatives active on the cholinergic system, and pharmaceutical compositions containing same” (Sanofi, priority 1987, dated 1995).
Like-named read-outs stand apart in the source and are kept apart here.

Tests used:
[1] = system: M1 central muscarinic cholinergic receptors; assay: Antagonism of rotations induced by intrastriatal injection of pirenzepine in mice; assay type: in vivo, mice (Swiss, CD 1); conditions: for Pirenzepine antagonism ED50 i.p.: 15 minutes before intrastriatal pirenzepine 1 μg; for Pirenzepine antagonism ED50 p.o.: 30 minutes before intrastriatal pirenzepine 1 μg
Procedure: Pirenzepine (PZ) is a specific antagonist of the M1 central muscarinic cholinergic receptors. The intrastriatal injection of PZ into mice induces rotatory behavoir. The antagonism of this behavoir by the products according to the invention was studied.
The products according to the invention are administered either intraperitoneally (i.p.) or orally (p.o.) after solubilization in distilled water or suspension in a 5% solution of gum arabic. The control animals receive the pure solvent under the same conditions.
The animals used are female mice (Swiss, CD 1, Charles River, France) with a body weight of between 25 and 30 grams.
The pirenzepine is dissolved in a phosphate buffer and the pH of the solution is 6.
The test products or their solvents are administered in a volume of 0.4 ml per 20 g of body weight, either by i.p. injection or orally via an esophageal tube.
The number of contralateral rotations (rotations in the opposite direction to the side injected) was counted for three 2-minute periods after injection of the pirenzepine: 2nd to 4th, 8th to 10th and 13th to 15th minutes. Each treatment consists of 3 to 4 doses and 10 animals per dose. The total number of rotations and the percentage antagonism with respect to the control group are calculated for each treatment.

[2] = target: T1, M2 -type muscarinic cholinergic receptor (Cavia porcellus, UniProt H0VRN8); assay: Affinity for the M2-type muscarinic cholinergic receptor, displacement of tritiated N-methylscopolamine (3H-NMS) on smooth guinea-pig ileum muscle homogenate; assay type: binding
T1 construct: on a smooth guinea-pig ileum muscle homogenate; from tissue; host or cells: guinea-pig ileum smooth muscle homogenate
T1 sequence (H0VRN8 1-466): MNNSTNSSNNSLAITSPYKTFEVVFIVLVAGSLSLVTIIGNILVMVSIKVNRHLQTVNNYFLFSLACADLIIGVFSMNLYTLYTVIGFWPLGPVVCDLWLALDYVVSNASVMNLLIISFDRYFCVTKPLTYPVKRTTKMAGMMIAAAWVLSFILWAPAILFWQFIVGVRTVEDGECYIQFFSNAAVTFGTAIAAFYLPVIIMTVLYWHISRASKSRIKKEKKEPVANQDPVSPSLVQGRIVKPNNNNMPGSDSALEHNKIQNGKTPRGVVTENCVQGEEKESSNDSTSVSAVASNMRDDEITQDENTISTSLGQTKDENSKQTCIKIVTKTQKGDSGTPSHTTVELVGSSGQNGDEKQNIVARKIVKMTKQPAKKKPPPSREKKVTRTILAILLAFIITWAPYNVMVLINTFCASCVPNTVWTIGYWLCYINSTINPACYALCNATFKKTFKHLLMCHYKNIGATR
Procedure: The M1 -type receptors are concentrated in certain regions of the brain, such as the hippocampus, the cerebral cortex and the striatum, and also in the sympathetic ganglia. These binding sites can be selectively labeled with tritiated pirenzepine (^3 H-PZ). The M2 -type receptors predominate in the heart and the ileum and can be labeled with tritiated N-methyl-scopolamine (^3 H-NMS). The selectivity of the products of the invention with respect to the M1 and M2 sites was determined by studying their in vitro interaction with ^3 H-PZ and ^3 H-NMS firmly bound with a high affinity to rat hippocampus membranes and smooth guinea-pig ileum muscle, respectively.
The interaction with the M2 -type muscarinic receptors was studied by in vitro measurement, on a smooth guinea-pig ileum muscle homogenate, of the displacement of tritiated N-methylscopolamine from its specific binding sites. […] The final volume is 1 ml. The reaction is stopped by centrifugation for 5 minutes at 15,000×g. The non-specific binding is determined in the presence of 10 mM atropine sulfate.
The IC50 for ^3 H-PZ displacement represents the affinity for the M1 receptor; the IC50 for ^3 H-NMS displacement represents the affinity for the M2 receptor.

[3] = target: T2, M1 -type muscarinic cholinergic receptor (Rattus norvegicus, UniProt P08482); assay: biochemical; assay type: binding; conditions: for ratio R of the IC50 values for the M1 and M2 receptors: selectivity, values correspond to IC50 M2 / IC50 M1
T2 sequence (P08482 1-460): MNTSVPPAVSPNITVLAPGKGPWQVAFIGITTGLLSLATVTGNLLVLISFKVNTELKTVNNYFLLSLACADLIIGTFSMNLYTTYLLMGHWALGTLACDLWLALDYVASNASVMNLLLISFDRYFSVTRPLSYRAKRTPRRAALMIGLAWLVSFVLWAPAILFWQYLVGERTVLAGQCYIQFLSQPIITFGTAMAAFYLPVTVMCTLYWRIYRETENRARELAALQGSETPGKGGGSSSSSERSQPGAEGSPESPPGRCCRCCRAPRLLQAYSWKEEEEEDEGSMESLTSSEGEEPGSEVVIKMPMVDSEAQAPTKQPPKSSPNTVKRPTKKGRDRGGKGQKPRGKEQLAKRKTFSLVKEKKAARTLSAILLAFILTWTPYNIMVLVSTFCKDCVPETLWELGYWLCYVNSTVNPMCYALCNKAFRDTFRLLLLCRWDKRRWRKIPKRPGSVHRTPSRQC
Procedure: The interaction of the molecules with the M1 -type muscarinic receptors was studied by in vitro measurement, on a rat hippocampus homogenate, of the displacement of tritiated pirenzepine from its specific binding sites. Aliquots (10 μl) of a 5% (w/v) rat hippocampus homogenate in an Na2 HPO4 buffer (50 mM, pH 7.40) are incubated for 2 hours at 4° C. in the presence of ^3 H-PZ (76 Ci/mmol; final concentration 1 nM) and increasing concentrations of the test product. The final volume is 2 ml. The reaction is stopped by centrifugation for 10 minutes at 50,000×g. After decantation and washing of the residues, the bound radioactivity is counted by liquid scintillation. The non-specific binding is determined in the presence of 10 μM atropine sulfate.

[4] = guinea-pig ileum smooth muscle homogenate, 3H-NMS 0.3 nM, 20 minutes at 30° C., pH 7.5, read-out: IC50 3H-NMS (M2)
[5] = rat hippocampus homogenate, 3H-PZ 1 nM, 2 hours at 4° C., pH 7.40, read-out: IC50 3H-PZ (M1)

| Compound | Pirenzepine antagonism ED50 i.p. [1] | Pirenzepine antagonism ED50 p.o. [1] | IC50 [2] | IC50 [3] | ratio R of the IC50 values for the M1 and M2 receptors [3] | IC50 ([3]; read-out: IC50 3H-PZ (M1)) | IC50 [2, 4] | IC50 [3, 5] |
| --- | --- | --- | --- | --- | --- | --- | --- | --- |
| COC(=O)C1=CCCN(C)C1 [Arecoline, reference compound] | 1 mg/kg | 0.5 mg/kg | 4.5 µM | – | – | – | – | – |
| O=C1CCCN1CC#CCN1CCCC1 [Oxotremorine, reference compound] | 0.005 mg/kg | – | 0.2 µM | 0.24 µM | 1 | – | – | – |
| c1ccc(-c2cnc(NCCN3CCOCC3)s2)cc1 [SR 44285 A] | 3 mg/kg | – | – | – | – | – | – | – |
| CCN(CC)CCNc1ncc(-c2ccccc2)s1.Cl.Cl [SR 44318 A, 2-[(2-Diethylaminoethyl)amino]-5-phenylthiazole dihydrochloride] | 1.5 mg/kg | 3 mg/kg | – | – | 11 | 3.4 µM | 38 µM | – |
| CCN(CC)CCNc1nc2c(s1)CCCc1ccccc1-2 [SR 44323 A] | 10 mg/kg | – | – | – | 5 | – | 8.5 µM | 1.7 µM |
| CCN(CC)CCCNc1nc2c(s1)CCCc1ccccc1-2 [SR 44326 A] | 3 mg/kg | – | – | – | > 45 | – | > 100 µM | 2.2 µM |
| CN(C)CCCNc1nc2c(s1)CCCc1ccccc1-2 [SR 44327 A] | 10 mg/kg | – | – | – | 20 | – | 38 µM | 1.9 µM |
| CCN(CC)CCCNc1ncc(-c2ccccc2)s1 [SR 44346 A] | 1 mg/kg | – | – | – | 12.5 | – | 25 µM | 2 µM |
| c1ccc2c(c1)CCCc1sc(NCCCN3CCOCC3)nc1-2 [SR 44392 A] | 3 mg/kg | – | – | – | – | – | – | – |
| CCN(CC)CCNc1nc2c(s1)CCc1ccccc1-2 [SR 44393 A] | 3 mg/kg | – | – | – | 15 | – | 42 µM | 2.7 µM |
| CCN(CC)CCNc1nc2c(s1)CCCc1ccc([N+](=O)[O-])cc1-2.Cl.Cl [SR 44411 A, 2-[(2-Diethylaminoethyl)amino]-9-nitro-5,6-dihydro-4H-benzo[6,7]cyclohepta[1,2-d]thi azole dihydrochloride] | 15 mg/kg | – | – | – | 7 | 0.9 µM | 6.7 µM | – |
| Cc1cc(C)c(-c2csc(NCCCN(C)C)n2)c(C)c1 [SR 44421 A] | – | 0.2 mg/kg | – | – | > 27 | – | > 100 µM | 3.6 µM |
| CCN(CC)CCCNc1nc(-c2ccccc2)c(-c2ccccc2)s1 [SR 44435 A] | 2 mg/kg | – | – | – | 8 | – | 3 µM | 0.36 µM |
| Cc1nc(NCCCN(C)C)sc1-c1ccccc1 [SR 44467 A] | – | 3 mg/kg | – | – | 25 | – | 38 µM | 1.5 µM |
| CN(C)CCCNc1nc(-c2ccc(Cl)cc2)cs1 [SR 44493 A] | – | 0.3 mg/kg | – | – | 28 | – | 45 µM | 1.6 µM |
| CN(C)CCCNc1nc(-c2ccc(F)cc2)cs1 [SR 44494 A] | – | 2 mg/kg | – | – | 100 | – | 80 µM | 0.8 µM |
| Cc1sc(NCCCN)nc1-c1ccccc1.Cl.Cl [SR 44514 A, 2-[(3-Aminopropyl)amino]-5-methyl-4-phenylthiazole dihydrochloride] | 3 mg/kg | – | – | – | > 200 | 0.5 µM | > 100 µM | – |
| CCN(CC)CCCNc1nc(-c2ccc3ccccc3c2)cs1 [SR 44573 A] | – | 2.50 mg/kg | – | – | 7 | – | 13 µM | 1.8 µM |
| CN(C)CCCNc1nc(-c2ccc(Cl)cc2Cl)cs1 [SR 44749 A] | – | 3 mg/kg | – | – | 14 | – | 26 µM | 1.8 µM |
| CN(C)CCCNc1nc(-c2ccc(F)cc2F)cs1 [SR 44770 A] | – | 3 mg/kg | – | – | 43 | – | 26 µM | 0.6 µM |
| Cc1cc(C)c(-c2csc(NCCC3CCCN3C)n2)c(C)c1 (stereo not shown) [SR 44814 A] | – | 0.2 mg/kg | – | – | 7 | – | – | 1.4 µM |
| Cc1cc(C)c(-c2csc(NCc3cccnc3)n2)c(C)c1 [SR 44839 A] | – | 0.2 mg/kg | – | – | 250 | – | 100 µM | 0.4 µM |
| Cc1cc(C)c(-c2csc(NCCc3ccncc3)n2)c(C)c1 [SR 44856 A] | – | 3 mg/kg | – | – | > 300 | – | > 100 µM | 0.3 µM |
| CN1CCN(CCCNc2nc(-c3ccc(F)cc3)cs2)CC1 [SR 44862 A] | – | 3 mg/kg | – | – | 11 | – | 34 µM | 3 µM |
| Cc1cc(C)c(-c2csc(NCCCN(C(C)C)C(C)C)n2)c(C)c1 [SR 44887 A] | – | 0.3 mg/kg | – | – | – | – | – | – |
| Cc1cc(C)c(-c2csc(NCCCN)n2)c(C)c1 [SR 44949 A, 2-[(3-Aminopropyl)amino]-4-(2,4,6-trimethylphenyl)thiazole] | – | 10 mg/kg | – | – | – | – | – | – |
